Assay results as given in patent publication EP2832348B1, “METHOD FOR DISSOLVING FLAVONOID COMPOUND, CARBON GLYCOSIDE COMPOUND, OR STILBENE COMPOUND AND METHOD FOR PREPARING AN INJECTION OR A POWDER FOR INJECTION” (Kunming Pharmaceutical Corp., priority 2012, dated 2013).
≈ marks a conversion by molar mass, not a printed value.

Tests used:
[1] = Dissolving the compound with solubilizer in heated, vacuum-stirred water for injection under nitrogen or argon gas (preparation tank); type: physicochemical; conditions: kept at 80 °C, nitrogen gas
Procedure: In view of this, the present invention provides a method for dissolving a carbon glycoside compound or a stilbene compound, characterized in that the method comprises the following steps: • heating water for injection to 80-98 °C, followed by stirring under vacuum condition at 30-80 °C, and then adding the carbon glycoside compound or the stilbene compound along with a solubilizer under the protection of nitrogen gas or argon gas to obtain a solution of said compounds; • wherein the solubilizer is one or a mixture of two or more of gastrodin, water-soluble cyclodextrin and ethanol, and wherein the water-soluble cyclodextrin is one or a mixture of two or more of methyl-β-cyclodextrin, thioether-β-cyclodextrin and sulfobutyl ether-β-cyclodextrin; and • wherein the mass ratio of the carbon glycoside compound or the stilbene compound to the solubilizer is 1:1-20.
Disclosed is a method for dissolving a flavonoid compound, a carbon glycoside compound or a stilbene compound, including: • mixing the flavonoid compound, the carbon glycoside compound or the stilbene compound with a solubilizer to obtain a reactant; and • heating water for injection to 80-98 °C, followed by stirring under vacuum conditions at 30-80 °C, and then adding the reactant under the protection of nitrogen gas or argon gas to obtain a solution of the reactant.
Considering the sensitivity to heat or light of the flavonoid compound, the carbon glycoside compound or the stilbene compound, a method is provided by heating water for injection to 80-98 °C to remove dissolved oxygen and other gases in water, which reduces the surface tension of water, increases the contact area of water with the flavonoid compound, the carbon glycoside compound or the stilbene compound, thus increasing the dissolution speed. Meanwhile, pre-heating the water for injection can effectively avoid degradation of the flavonoid compound, the carbon glycoside compound or the stilbene compound due to exposure to the dissolved oxygen, to eliminate unstable factors of the flavonoid compound, the carbon glycoside compound or the stilbene compound. The vacuum conditions can achieve further deoxygenation, facilitating the dissolution of the flavonoid compound, the carbon glycoside compound or the stilbene compound in water. Nitrogen gas or argon gas provides an inert atmosphere, which further reduces the surface tension of the materials, increases the contact area of the flavonoid compound, the carbon glycoside compound or the stilbene compound with water, and increases the dissolution speed.

[2] = Solubility of triptophenolide in aqueous solutions with different concentrations of gastrodin and/or water-soluble cyclodextrin; type: physicochemical; conditions: aqueous solution of solubilizer
From the text: Table 1. Solubility of triptophenolide in aqueous solutions with different concentrations of gastrodin and/or water-soluble cyclodextrin

dissolved in (time) ([1]; Example 35: 5 g with Gastrodin 80 g in 1000 ml, water heated to 95 °C, vacuum stirring 10 minutes): about 5 minutes
dissolved in (time) ([1]; Example 36: 20 g with Gastrodin 200 g in 1000 ml, water heated to 95 °C, vacuum stirring 10 minutes): about 5 minutes
dissolved in (time) ([1]; Example 37: 10 g with Gastrodin 80 g in 1000 ml, water heated to 95 °C, vacuum stirring 10 minutes): about 5 minutes
dissolved in (time) ([1]; Example 38: 25 g with Gastrodin 80 g, Hydroxypropyl-β-cyclodextrin 30 g in 1000 ml, water heated to 95 °C, vacuum stirring 10 minutes): about 5 minutes
dissolved in (time) ([1]; Example 47: 5 g with Methyl-β-cyclodextrin 30 g in 1000 ml, water heated to 88 °C, vacuum stirring 40 minutes): about 5 minutes
dissolved in (time) ([1]; Example 51: 10 g with Methyl-β-cyclodextrin 30 g in 1000 ml, water heated to 95 °C, vacuum stirring 10 minutes): about 5 minutes
dissolved in (time) ([1]; Example 52: 10 g with Thioether-β-cyclodextrin 30 g in 1000 ml, water heated to 95 °C, vacuum stirring 10 minutes): about 5 minutes
dissolved in (time) ([1]; Example 55: 10 g with Methyl-β-cyclodextrin 50 g in 1000 ml, water heated to 95 °C, vacuum stirring 10 minutes): about 5 minutes
dissolved in (time) ([1]; Example 58: 20 g with Hydroxypropyl-β-cyclodextrin 50 g in 1000 ml, water heated to 95 °C, vacuum stirring 10 minutes): about 5 minutes
dissolved in (time) ([1]; Example 59: 20 g with Methyl-β-cyclodextrin 50 g in 1000 ml, water heated to 95 °C, vacuum stirring 10 minutes): about 5 minutes
dissolved in (time) ([1]; Example 61: 20 g with Sulfobutyl ether-β-cyclodextrin 50 g in 1000 ml, water heated to 95 °C, vacuum stirring 10 minutes): about 5 minutes
dissolved in (time) ([1]; Example 63: 5 g with Gastrodin 100 g in 1000 ml, water heated to 95 °C, vacuum stirring 10 minutes): about 5 minutes
dissolved in (time) ([1]; Example 65: 5 g with Gastrodin 100 g in 1000 ml, water heated to 95 °C, vacuum stirring 10 minutes): about 5 minutes
dissolved in (time) ([1]; Example 68: 50 g with Hydroxypropyl-β-cyclodextrin 80 g in 1000 ml, water heated to 95 °C, vacuum stirring 10 minutes): about 5 minutes
dissolved in (time) ([1]; Example 69: 50 g with Methyl-β-cyclodextrin 80 g in 1000 ml, water heated to 95 °C, vacuum stirring 10 minutes): about 5 minutes
dissolved in (time) ([1]; Example 70: 50 g with Thioether-β-cyclodextrin 80 g in 1000 ml, water heated to 95 °C, vacuum stirring 10 minutes): about 5 minutes
dissolved in (time) ([1]; Example 71: 50 g with Sulfobutyl ether-β-cyclodextrin 80 g (formula; text: hydroxypropyl-β-cyclodextrin) in 1000 ml, water heated to 95 °C, vacuum stirring 10 minutes): about 5 minutes
dissolved in (time) ([1]; Example 72: 50 g with Hydroxypropyl-β-cyclodextrin 80 g in 1000 ml, water heated to 95 °C, vacuum stirring 10 minutes): about 5 minutes
dissolved in (time) ([1]; Example 73: 50 g with Hydroxypropyl-β-cyclodextrin 80 g in 1000 ml, water heated to 95 °C, vacuum stirring 10 minutes): about 5 minutes
dissolved in (time) ([1]; Example 74: 5 g with Gastrodin 0.5 g in 1000 ml, water heated to 95 °C, vacuum stirring 10 minutes): about 5 minutes
dissolved in (time) ([1]; Example 80: 10 g with Hydroxypropyl-β-cyclodextrin 30 g in 1000 ml, water heated to 95 °C, vacuum stirring 10 minutes): about 5 minutes
solubility ([2]; aqueous with cosolvent or surfactant or cyclodextrin, Gastrodin concentration 1 %): 3.19 mg/mL (≈ 7.85 mM)
solubility ([2]; aqueous with cosolvent or surfactant or cyclodextrin, Gastrodin concentration 3 %): 5.1 mg/mL (≈ 12.5 mM)
solubility ([2]; aqueous with cosolvent or surfactant or cyclodextrin, Gastrodin concentration 5 %): 7.11 mg/mL (≈ 17.5 mM)
solubility ([2]; aqueous with cosolvent or surfactant or cyclodextrin, Gastrodin concentration 8 %): 9.17 mg/mL (≈ 22.6 mM)
solubility ([2]; aqueous with cosolvent or surfactant or cyclodextrin, Gastrodin concentration 10 %): 11.4 mg/mL (≈ 28.1 mM)
solubility ([2]; aqueous with cosolvent or surfactant or cyclodextrin, Gastrodin concentration 15 %): 11.8 mg/mL (≈ 28.9 mM)
solubility ([2]; aqueous with cosolvent or surfactant or cyclodextrin, Gastrodin concentration 25 %): 38.4 mg/mL (≈ 94.4 mM)
solubility ([2]; aqueous with cosolvent or surfactant or cyclodextrin, Gastrodin concentration 30 %): 60.4 mg/mL (≈ 149 mM)
solubility ([2]; aqueous with cosolvent or surfactant or cyclodextrin, Gastrodin concentration 35 %): 87.8 mg/mL (≈ 216 mM)
solubility ([2]; aqueous with cosolvent or surfactant or cyclodextrin, Gastrodin concentration 40 %): 85.1 mg/mL (≈ 209 mM)
solubility ([2]; aqueous with cosolvent or surfactant or cyclodextrin, Gastrodin concentration 45 %): 98 mg/mL (≈ 241 mM)
solubility ([2]; aqueous with cosolvent or surfactant or cyclodextrin, Gastrodin concentration 50 %): 105 mg/mL (≈ 258 mM)
solubility ([2]; aqueous with cosolvent or surfactant or cyclodextrin, Hydroxypropyl-β-cyclodextrin concentration 1 %): 4.8 mg/mL (≈ 11.8 mM)
solubility ([2]; aqueous with cosolvent or surfactant or cyclodextrin, Hydroxypropyl-β-cyclodextrin concentration 3 %): 10.8 mg/mL (≈ 26.5 mM)
solubility ([2]; aqueous with cosolvent or surfactant or cyclodextrin, Hydroxypropyl-β-cyclodextrin concentration 5 %): 20 mg/mL (≈ 49.3 mM)
solubility ([2]; aqueous with cosolvent or surfactant or cyclodextrin, Hydroxypropyl-β-cyclodextrin concentration 8 %): 26.1 mg/mL (≈ 64.3 mM)
solubility ([2]; aqueous with cosolvent or surfactant or cyclodextrin, Hydroxypropyl-β-cyclodextrin concentration 10 %): 34.1 mg/mL (≈ 83.9 mM)
solubility ([2]; aqueous with cosolvent or surfactant or cyclodextrin, Hydroxypropyl-β-cyclodextrin concentration 15 %): 43.3 mg/mL (≈ 106 mM)
solubility ([2]; aqueous with cosolvent or surfactant or cyclodextrin, Hydroxypropyl-β-cyclodextrin concentration 20 %): 59.2 mg/mL (≈ 146 mM)
solubility ([2]; aqueous with cosolvent or surfactant or cyclodextrin, Hydroxypropyl-β-cyclodextrin concentration 25 %): 64.3 mg/mL (≈ 158 mM)
solubility ([2]; aqueous with cosolvent or surfactant or cyclodextrin, Hydroxypropyl-β-cyclodextrin concentration 30 %): 116 mg/mL (≈ 286 mM)
solubility ([2]; aqueous with cosolvent or surfactant or cyclodextrin, Hydroxypropyl-β-cyclodextrin concentration 35 %): 159 mg/mL (≈ 392 mM)
solubility ([2]; aqueous with cosolvent or surfactant or cyclodextrin, Hydroxypropyl-β-cyclodextrin concentration 40 %): 189 mg/mL (≈ 464 mM)
solubility ([2]; aqueous with cosolvent or surfactant or cyclodextrin, Hydroxypropyl-β-cyclodextrin concentration 45 %): 181 mg/mL (≈ 444 mM)
solubility ([2]; aqueous with cosolvent or surfactant or cyclodextrin, Hydroxypropyl-β-cyclodextrin concentration 50 %): 183 mg/mL (≈ 451 mM)
solubility ([2]; aqueous with cosolvent or surfactant or cyclodextrin, Solubilizer concentration: Gastrodin 0 %, Hydroxypropyl-β-cyclodextrin 3 %): 10.8 mg/mL (≈ 26.5 mM)
solubility ([2]; aqueous with cosolvent or surfactant or cyclodextrin, Solubilizer concentration: Gastrodin 1 %, Hydroxypropyl-β-cyclodextrin 3 %): 14.8 mg/mL (≈ 36.4 mM)
solubility ([2]; aqueous with cosolvent or surfactant or cyclodextrin, Solubilizer concentration: Gastrodin 3 %, Hydroxypropyl-β-cyclodextrin 3 %): 16.2 mg/mL (≈ 39.9 mM)
solubility ([2]; aqueous with cosolvent or surfactant or cyclodextrin, Solubilizer concentration: Gastrodin 5 %, Hydroxypropyl-β-cyclodextrin 3 %): 22.6 mg/mL (≈ 55.6 mM)
solubility ([2]; aqueous with cosolvent or surfactant or cyclodextrin, Solubilizer concentration: Gastrodin 8 %, Hydroxypropyl-β-cyclodextrin 3 %): 30.9 mg/mL (≈ 76.1 mM)
solubility ([2]; aqueous with cosolvent or surfactant or cyclodextrin, Solubilizer concentration: Gastrodin 10 %, Hydroxypropyl-β-cyclodextrin 3 %): 39.8 mg/mL (≈ 98 mM)
solubility ([2]; aqueous with cosolvent or surfactant or cyclodextrin, Solubilizer concentration: Gastrodin 15 %, Hydroxypropyl-β-cyclodextrin 3 %): 56 mg/mL (≈ 138 mM)
solubility ([2]; aqueous with cosolvent or surfactant or cyclodextrin, Solubilizer concentration: Gastrodin 20 %, Hydroxypropyl-β-cyclodextrin 3 %): 107 mg/mL (≈ 264 mM)
solubility ([2]; aqueous with cosolvent or surfactant or cyclodextrin, Solubilizer concentration: Gastrodin 25 %, Hydroxypropyl-β-cyclodextrin 3 %): 127 mg/mL (≈ 312 mM)
solubility ([2]; aqueous with cosolvent or surfactant or cyclodextrin, Solubilizer concentration: Gastrodin 30 %, Hydroxypropyl-β-cyclodextrin 3 %): 181 mg/mL (≈ 446 mM)
solubility ([2]; aqueous with cosolvent or surfactant or cyclodextrin, Solubilizer concentration: Gastrodin 35 %, Hydroxypropyl-β-cyclodextrin 3 %): 233 mg/mL (≈ 574 mM)
solubility ([2]; aqueous with cosolvent or surfactant or cyclodextrin, Solubilizer concentration: Gastrodin 40 %, Hydroxypropyl-β-cyclodextrin 3 %): 197 mg/mL (≈ 485 mM)
solubility ([2]; aqueous with cosolvent or surfactant or cyclodextrin, Solubilizer concentration: Gastrodin 45 %, Hydroxypropyl-β-cyclodextrin 3 %): 187 mg/mL (≈ 460 mM)
solubility ([2]; aqueous with cosolvent or surfactant or cyclodextrin, Solubilizer concentration: Gastrodin 50 %, Hydroxypropyl-β-cyclodextrin 3 %): 188 mg/mL (≈ 463 mM)
solubility ([2]; water, Gastrodin concentration 0 %): 1.75 mg/mL (≈ 4.31 mM)
solubility ([2]; water, Hydroxypropyl-β-cyclodextrin concentration 0 %): 1.75 mg/mL (≈ 4.31 mM)
SMILES: OC[C@H]1O[C@@H](Oc2cc(/C=C/c3cc(O)cc(O)c3)ccc2O)[C@H](O)[C@@H](O)[C@@H]1O
